According to PubChem BioAssay AID1963437 (Molecular Pharmacology Branch, DTP, NCI, 2024):

Tested on: OVCAR-8 complex spheroid, growth inhibition
Experiment: Anticancer human tumor OVCAR-8 cell line growth inhibition [Asc];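 note: spheroids exposed to agents for 7 days before readout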;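 for viability, T/C: percent viability relative to DMSO vehicle wells taken as 100%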
Conditions: for viability, T/C: stronger effect = lower value
Procedure, shortened: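 Tumor cells were grown as complex spheroids with human endothelial cells (HUVEC) and human mesenchymal stem cells as stroma. Agents were tested alone and in combination, in half-log steps down from the clinical Cmax, or from 10 microM where Cmax was unknown.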

[1] = curve of first compound, second compound 0.00316 µM
[2] = curve of first compound, second compound 0.01 µM
[3] = curve of first compound, second compound 0.0316 µM
[4] = curve of first compound, second compound 0.1 µM
[5] = curve of first compound, second compound 0.316 µM
[6] = curve of first compound, second compound 1 µM
[7] = second compound 0.00316 µM, first compound 0.00949 µM
[8] = second compound 0.00316 µM, first compound 0.03 µM
[9] = second compound 0.00316 µM, first compound 0.0949 µM
[10] = second compound 0.00316 µM, first compound 0.3 µM
[11] = second compound 0.01 µM, first compound 0.00949 µM
[12] = second compound 0.01 µM, first compound 0.03 µM
[13] = second compound 0.01 µM, first compound 0.0949 µM
[14] = second compound 0.01 µM, first compound 0.3 µM
[15] = second compound 0.0316 µM, first compound 0.00949 µM
[16] = second compound 0.0316 µM, first compound 0.03 µM
[17] = second compound 0.0316 µM, first compound 0.0949 µM
[18] = second compound 0.0316 µM, first compound 0.3 µM
[19] = second compound 0.1 µM, first compound 0.00949 µM
[20] = second compound 0.1 µM, first compound 0.03 µM
[21] = second compound 0.1 µM, first compound 0.0949 µM
[22] = second compound 0.1 µM, first compound 0.3 µM
[23] = second compound 0.316 µM, first compound 0.00949 µM
[24] = second compound 0.316 µM, first compound 0.03 µM
[25] = second compound 0.316 µM, first compound 0.0949 µM
[26] = second compound 0.316 µM, first compound 0.3 µM
[27] = second compound 1 µM, first compound 0.00949 µM
[28] = second compound 1 µM, first compound 0.03 µM
[29] = second compound 1 µM, first compound 0.0949 µM
[30] = second compound 1 µM, first compound 0.3 µM

With NC(=O)C(=Cn1cnc(-c2cc(C(F)(F)F)cc(C(F)(F)F)c2)n1)c1cncnc1 + CNC(C)C(=O)NC1CN(S(=O)(=O)c2cccc(S(=O)(=O)N3CCC4CCC(C(=O)NC(c5ccccc5)c5ccccc5)N4C(=O)C(NC(=O)C(C)NC)C3)c2)CCC2CCC(C(=O)NC(c3ccccc3)c3ccccc3)N2C1=O the IC50 [1] was 0.261 µM, the IC50 [2] was over 0.3 µM and the IC50 [3] was over 0.3 µM. The IC50 [4] was 0.12 µM, the IC50 [5] was 0.0732 µM and the IC50 [6] was 0.0679 µM. It also gave a viability, T/C (second compound 0.00316 µM, first compound 0.000949 µM) of 140%, a viability, T/C (second compound 0.00316 µM, first compound 0.003 µM) of 111% and a viability, T/C [7] of 110%. For the same compound, the viability, T/C [8] was 153%, the viability, T/C [9] was 95.6% and the viability, T/C [10] was 43.8%. The viability, T/C (second compound 0.01 µM, first compound 0.000949 µM) was 123%, the viability, T/C (second compound 0.01 µM, first compound 0.003 µM) was 129% and the viability, T/C [11] was 110%. The viability, T/C [12] was 123%, the viability, T/C [13] was 91.2% and the viability, T/C [14] was 54%. For the same compound, the viability, T/C (second compound 0.0316 µM, first compound 0.000949 µM) was 117%, the viability, T/C (second compound 0.0316 µM, first compound 0.003 µM) was 114% and the viability, T/C [15] was 112%. The viability, T/C [16] was 129%, the viability, T/C [17] was 74.5% and the viability, T/C [18] was 48.4%. For the same compound, the viability, T/C (second compound 0.1 µM, first compound 0.000949 µM) was 122%, the viability, T/C (second compound 0.1 µM, first compound 0.003 µM) was 91.6% and the viability, T/C [19] was 121%. It also gave a viability, T/C [20] of 138%, a viability, T/C [21] of 55.3% and a viability, T/C [22] of 29.5%. For the same compound, the viability, T/C (second compound 0.316 µM, first compound 0.000949 µM) was 109%, the viability, T/C (second compound 0.316 µM, first compound 0.003 µM) was 115% and the viability, T/C [23] was 113%. It also gave a viability, T/C [24] of 122%, a viability, T/C [25] of 31.3% and a viability, T/C [26] of 7.46%. The viability, T/C (second compound 1 µM, first compound 0.000949 µM) was 97%, the viability, T/C (second compound 1 µM, first compound 0.003 µM) was 103% and the viability, T/C [27] was 109%. For the same compound, the viability, T/C [28] was 127%, the viability, T/C [29] was 25.8% and the viability, T/C [30] was 4.16%.

O=C(c1cc(Cc2n[nH]c(=O)c3ccccc23)ccc1F)N1CCN(C(=O)C2CC2)CC1 + CNC(C)C(=O)NC1CN(S(=O)(=O)c2cccc(S(=O)(=O)N3CCC4CCC(C(=O)NC(c5ccccc5)c5ccccc5)N4C(=O)C(NC(=O)C(C)NC)C3)c2)CCC2CCC(C(=O)NC(c3ccccc3)c3ccccc3)N2C1=O showed an IC50 [1] of under 0.0316 µM, an IC50 [2] of over 10 µM and an IC50 [3] of over 10 µM. For the same compound, the IC50 [4] was over 10 µM, the IC50 [5] was 9.9 µM and the IC50 [6] was 6.84 µM. The viability, T/C (second compound 0.00316 µM, first compound 0.0316 µM) was 0.81%, the viability, T/C (second compound 0.00316 µM, first compound 0.1 µM) was 1.08% and the viability, T/C (second compound 0.00316 µM, first compound 0.316 µM) was 0.69%. For the same compound, the viability, T/C (second compound 0.00316 µM, first compound 1 µM) was 1.07%, the viability, T/C (second compound 0.00316 µM, first compound 3.16 µM) was 1.9% and the viability, T/C (second compound 0.00316 µM, first compound 10 µM) was 0.51%. It also gave a viability, T/C (second compound 0.01 µM, first compound 0.0316 µM) of 111%, a viability, T/C (second compound 0.01 µM, first compound 0.1 µM) of 102% and a viability, T/C (second compound 0.01 µM, first compound 0.316 µM) of 101%. For the same compound, the viability, T/C (second compound 0.01 µM, first compound 1 µM) was 110%, the viability, T/C (second compound 0.01 µM, first compound 3.16 µM) was 112% and the viability, T/C (second compound 0.01 µM, first compound 10 µM) was 79.2%. It also gave a viability, T/C (second compound 0.0316 µM, first compound 0.0316 µM) of 94%, a viability, T/C (second compound 0.0316 µM, first compound 0.1 µM) of 99.3% and a viability, T/C (second compound 0.0316 µM, first compound 0.316 µM) of 101%. It also gave a viability, T/C (second compound 0.0316 µM, first compound 1 µM) of 94.7%, a viability, T/C (second compound 0.0316 µM, first compound 3.16 µM) of 103% and a viability, T/C (second compound 0.0316 µM, first compound 10 µM) of 87%. It also gave a viability, T/C (second compound 0.1 µM, first compound 0.0316 µM) of 80.3%, a viability, T/C (second compound 0.1 µM, first compound 0.1 µM) of 86.4% and a viability, T/C (second compound 0.1 µM, first compound 0.316 µM) of 88.6%. The viability, T/C (second compound 0.1 µM, first compound 1 µM) was 101%, the viability, T/C (second compound 0.1 µM, first compound 3.16 µM) was 83.9% and the viability, T/C (second compound 0.1 µM, first compound 10 µM) was 79.1%. The viability, T/C (second compound 0.316 µM, first compound 0.0316 µM) was 83.7%, the viability, T/C (second compound 0.316 µM, first compound 0.1 µM) was 100% and the viability, T/C (second compound 0.316 µM, first compound 0.316 µM) was 90.4%. For the same compound, the viability, T/C (second compound 0.316 µM, first compound 1 µM) was 82.4%, the viability, T/C (second compound 0.316 µM, first compound 3.16 µM) was 90.9% and the viability, T/C (second compound 0.316 µM, first compound 10 µM) was 49.7%. The viability, T/C (second compound 1 µM, first compound 0.0316 µM) was 79.2%, the viability, T/C (second compound 1 µM, first compound 0.1 µM) was 90.7% and the viability, T/C (second compound 1 µM, first compound 0.316 µM) was 99.5%. The viability, T/C (second compound 1 µM, first compound 1 µM) was 90.3%, the viability, T/C (second compound 1 µM, first compound 3.16 µM) was 92.5% and the viability, T/C (second compound 1 µM, first compound 10 µM) was 29.8%.

In the case of CCN1C(C(=O)NC23CCC(C(=O)O)(CC2)CC3)C(c2cccc(Cl)c2F)C2(C(=O)Nc3cc(Cl)ccc32)C12CCCCC2 (stereo unspecified), the viability, T/C (compound 0.03 µM) is reported as 93.4% [middle of 9 runs], the viability, T/C (compound 0.949 µM) is reported as 100% [middle of 9 runs] and the viability, T/C (compound 3 µM) is reported as 104% [middle of 9 runs]. For the same compound, the IC50 (compound alone, run of 11/07/2022) was over 3 µM and the IC50 (curve of compound) was over 3 µM.

Cc1nc(N2CCC3(CC2)COC(C)C3N)c(CO)nc1Sc1ccnc(N)c1Cl (stereo unspecified) + CNC(C)C(=O)NC1CN(S(=O)(=O)c2cccc(S(=O)(=O)N3CCC4CCC(C(=O)NC(c5ccccc5)c5ccccc5)N4C(=O)C(NC(=O)C(C)NC)C3)c2)CCC2CCC(C(=O)NC(c3ccccc3)c3ccccc3)N2C1=O gave an IC50 [1] of over 3 µM, an IC50 [2] of over 3 µM and an IC50 [3] of over 3 µM. It also gave an IC50 [4] of over 3 µM, an IC50 [5] of over 3 µM and an IC50 [6] of over 3 µM. The viability, T/C [7] was 130%, the viability, T/C [8] was 136% and the viability, T/C [9] was 208%. The viability, T/C [10] was 235%, the viability, T/C (second compound 0.00316 µM, first compound 0.949 µM) was 260% and the viability, T/C (second compound 0.00316 µM, first compound 3 µM) was 245%. It also gave a viability, T/C [11] of 111%, a viability, T/C [12] of 130% and a viability, T/C [13] of 163%. The viability, T/C [14] was 251%, the viability, T/C (second compound 0.01 µM, first compound 0.949 µM) was 263% and the viability, T/C (second compound 0.01 µM, first compound 3 µM) was 237%. It also gave a viability, T/C [15] of 93%, a viability, T/C [16] of 130% and a viability, T/C [17] of 166%. For the same compound, the viability, T/C [18] was 205%, the viability, T/C (second compound 0.0316 µM, first compound 0.949 µM) was 248% and the viability, T/C (second compound 0.0316 µM, first compound 3 µM) was 224%. For the same compound, the viability, T/C [19] was 86.7%, the viability, T/C [20] was 111% and the viability, T/C [21] was 155%. For the same compound, the viability, T/C [22] was 166%, the viability, T/C (second compound 0.1 µM, first compound 0.949 µM) was 208% and the viability, T/C (second compound 0.1 µM, first compound 3 µM) was 171%. For the same compound, the viability, T/C [23] was 70.7%, the viability, T/C [24] was 82.6% and the viability, T/C [25] was 109%. It also gave a viability, T/C [26] of 169%, a viability, T/C (second compound 0.316 µM, first compound 0.949 µM) of 140% and a viability, T/C (second compound 0.316 µM, first compound 3 µM) of 110%. For the same compound, the viability, T/C [27] was 81.5%, the viability, T/C [28] was 95.1% and the viability, T/C [29] was 119%. For the same compound, the viability, T/C [30] was 123%, the viability, T/C (second compound 1 µM, first compound 0.949 µM) was 116% and the viability, T/C (second compound 1 µM, first compound 3 µM) was 75.1%.
